Patent publication US20180118718A1, “Substituted Quinoxaline Derivatives” (Selvita S.A., priority 2015, published 2018)

molecular target: T1, Human recombinant His-tagged PFKFB3 (Homo sapiens, UniProt Q16875); assay: PFKFB3 IC50 Determination Assay (in vitro kinase assay, modified ADP-Glo system); type: biochemical; conditions: ATP 20 μM and fructose-6-phosphate 2 μM (Km), 25 nM PFKFB3, 2 h, rt, ADP-Glo luminescence
T1 construct: His; made in house
Protocol: PFKFB3 IC50 Determination Assay
In vitro kinase assay used to determine IC50 values for tested inhibitors is based on a modified ADP-Glo™ system (Promega) and consists of two parts:
1. Kinase reaction—performed in optimized conditions. At this step PFKFB3 phosphorylates its substrate Fructose-6-phosphate using ATP as a source of phosphate to produce Fructose-2,6-bisphosphate and ADP. Reaction is performed at Km values for ATP and substrate using optimized buffer composition and time of the reaction. Human recombinant His-tagged PFKFB3 (PFKFB3 BATCH II SEC) with confirmed activity is produced and purified in-house. 2. Detection of ADP as a product of the reaction using ADP-Glo™ system. This part is conducted by using the commercially available kit ADP-Glo™ Kinase Assay (Promega, cat. No# V9103) according to manufacturer's instruction, modified by 5x dilutions of assay reagents (both ADP-Glo™ Reagent and Kinase Detection Solution).
Test compounds are dissolved in DMSO and then transferred to the V-bottom 96-well plate.
15 μL per well of Mix 1 is transferred to assay wells of 96-well white plate. […] Total reaction volume is 30 μL per well. Samples are tested in duplicates. Final concentration of DMSO in the reaction is 6.7%. Conditions needed for performing PFKFB3 (PFKFB3 BATCH II SEC) in vitro kinase assay are given below:
This protocol is based on Technical Bulletin, ADP-Glo™ Kinase Assay (Promega) and is adapted to 96-well plate containing 30 μL reaction mixture:
30 μL of 5x diluted ADP-Glo™ Reagent is added to each well of 96-well plate containing 30 μL of reaction mixture. The plate is incubated for 90 minutes on a shaker at RT. 60 μL of 5x diluted Kinase Detection Solution is added to each well of 96-well plate containing 60 μL of the solution (ratio of kinase reaction volume to ADP-Glo™ Reagent volume to Kinase Detection Solution volume is maintained at 1:1:2). Plate is incubated for 40 minutes on a shaker at RT, protected from light. Luminescence is measured in the plate reader Synergy 2 (BioTek).
Luminescent readouts for compounds tested in 10 concentrations (routinely from 100 μM to […], […] serial dilutions) in duplicates, as well as for positive control, are first normalized to no-substrate negative control by its subtraction. In the next step, % of normalized positive control is calculated for each data point and plotted against test compound concentration:
% of control percent of positive control normalized to no-substrate negative control Lumcpd luminescence of test compound Lumneg luminescence of no-substrate negative control Lumpos luminescence of positive control
IC50 parameter is determined by the GraphPad Prism 5.0 software [log(inhibitor) vs. response −Variable slope (four parameters)].

T1 sequence (Q16875 whole entry): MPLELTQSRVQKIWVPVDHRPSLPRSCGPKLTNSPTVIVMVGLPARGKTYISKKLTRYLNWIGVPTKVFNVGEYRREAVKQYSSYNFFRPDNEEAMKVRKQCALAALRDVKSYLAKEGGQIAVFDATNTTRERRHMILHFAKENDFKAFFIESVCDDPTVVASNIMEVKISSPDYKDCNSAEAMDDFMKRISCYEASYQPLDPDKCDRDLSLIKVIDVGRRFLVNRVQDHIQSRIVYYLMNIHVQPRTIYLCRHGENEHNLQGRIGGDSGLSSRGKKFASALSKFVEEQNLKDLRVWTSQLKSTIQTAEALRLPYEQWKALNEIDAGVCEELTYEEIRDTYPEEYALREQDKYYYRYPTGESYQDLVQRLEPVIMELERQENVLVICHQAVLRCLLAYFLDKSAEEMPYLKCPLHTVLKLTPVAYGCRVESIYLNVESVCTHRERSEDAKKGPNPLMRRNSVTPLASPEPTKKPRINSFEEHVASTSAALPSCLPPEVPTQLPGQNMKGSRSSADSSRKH

Question: Which IC50 does the source give for `Cn1ccc2cc(-c3cc(N4CCc5ccncc54)cc4nccnc34)ccc21` [Example 34, 5-(1-Methyl-1H-indol-5-yl)-7-{1H,2H,3H-pyrrolo[2,3-c]pyridin-1-yl}quinoxaline] here?
Answer: 10 to 100 µM

Question: How did the IC50 turn out when `Cn1nnc2ccc(-c3cc(Nc4cnccc4S(C)(=O)=O)cc4nccnc34)cc21` [Example 170, N-(4-Methanesulfonylpyridin-3-yl)-8-(1-methyl-1H-1,2,3-benzotriazol-6-yl)quinoxalin-6-amine] was run?
Answer: 10 to 100 µM

Question: For `Cn1ccc2cc(-c3cc(Nc4cc(CN)ccc4S(C)(=O)=O)cc4nccnc34)ccc21` [Example 38, N-[5-(Aminomethyl)-2-methanesulfonylphenyl]-8-(1-methyl-1H-indol-5-yl)quinoxalin-6-amine], which IC50 is on record?
Answer: 10 to 100 µM

Question: Which IC50 does the source give for `Cc1csc2ccc(-c3cc(Nc4cnccc4C#N)cc4nccnc34)cc12` [Example 150, 3-{[8-(3-Methyl-1-benzothiophen-5-yl)quinoxalin-6-yl]amino}pyridine-4-carbonitrile] here?
Answer: 0.001 to 1 µM

Question: With `Cn1ccc2cc(-c3cc(Nc4cnccc4-c4cncnc4)cc4nccnc34)ccc21` [Example 33, 8-(1-Methyl-1H-indol-5-yl)-N-[4-(pyrimidin-5-yl)pyridin-3-yl]quinoxalin-6-amine] as the molecule, how does the IC50 read?
Answer: 10 to 100 µM

Question: Which IC50 does the source give for `Cn1ccc2ccc(-c3cc(Nc4cc(-n5ccnc5)ccc4S(C)(=O)=O)cc4nccnc34)cc21` [Example 42, N-[5-(1H-Imidazol-1-yl)-2-methanesulfonylphenyl]-8-(1-methyl-1H-indol-6-yl)quinoxalin-6-amine] here?
Answer: 0.001 to 1 µM

Question: How did the IC50 turn out when `Cn1ccc2ccc(-c3cc(Nc4ncccc4S(C)(=O)=O)cc4nccnc34)cc21` [Example 81, N-(3-Methanesulfonylpyridin-2-yl)-8-(1-methyl-1H-indol-6-yl)quinoxalin-6-amine] was run?
Answer: 0.001 to 1 µM

Question: How did the IC50 turn out when `CN1CCC(NC(=O)c2ccccc2Nc2cc(-c3ccc4ccn(C)c4c3)c3nccnc3c2)C1` (stereo not drawn) [Example 183, 2-{[8-(1-Methyl-1H-indol-6-yl)quinoxalin-6-yl]amino}-N-(1-methylpyrrolidin-3-yl)benzamide] was run?
Answer: 0.001 to 1 µM

Question: `Cn1ccc2ccc(-c3cc(Nc4cc(C(=O)NN)ccc4S(C)(=O)=O)cc4nccnc34)cc21` [Example 119, 4-Methanesulfonyl-3-{[8-(1-methyl-1H-indol-6-yl)quinoxalin-6-yl]amino}benzohydrazide] was tested. Which IC50 did it give?
Answer: 0.001 to 1 µM

Question: How did the IC50 turn out when `Cn1ccc2ccc(-c3cc(Nc4cc(C(N)=O)ccc4S(C)(=O)=O)cc4nccnc34)cc21` [Example 116, 4-Methanesulfonyl-3-{[8-(1-methyl-1H-indol-6-yl)quinoxalin-6-yl]amino}benzamide] was run?
Answer: 0.001 to 1 µM

Question: `Cc1csc2ccc(-c3cc(Nc4ccccc4S(C)(=O)=O)cc4nccnc34)cc12` [Example 191, N-(2-Methanesulfonylphenyl)-8-(3-methyl-1-benzothiophen-5-yl)quinoxalin-6-amine] was tested. Which IC50 did it give?
Answer: 0.001 to 1 µM

Question: For `Cn1ccc2ccc(-c3cc(Nc4ccncc4C#N)cc4nccnc34)cc21` [Example 145, 4-{[8-(1-Methyl-1H-indol-6-yl)quinoxalin-6-yl]amino}pyridine-3-carbonitrile], which IC50 is on record?
Answer: 1 to 10 µM

Question: With `N#Cc1cnccc1Nc1cc(Cl)c2nccnc2c1` [Example 146, 4-[(8-chloroquinoxalin-6-yl)amino]pyridine-3-carbonitrile] as the molecule, how does the IC50 read?
Answer: 10 to 100 µM

Question: Which IC50 does the source give for `CN(C)Cc1ccncc1Nc1cc(-c2ccc3ccn(C)c3c2)c2nccnc2c1` [Example 175, N-{4-[(dimethylamino)methyl]pyridin-3-yl}-8-(1-methyl-1H-indol-6-yl)quinoxalin-6-amine] here?
Answer: 0.001 to 1 µM

Question: For `CN(c1cc(-c2ccc3ccn(C)c3c2)c2nccnc2c1)c1cnccc1C(=O)Nc1cncnc1` [Example 125, 3-{Methyl[8-(1-methyl-1H-indol-6-yl)quinoxalin-6-yl]amino}-N-(pyrimidin-5-yl)pyridine-4-carboxamide], which IC50 is on record?
Answer: 1 to 10 µM

Question: For `CCOc1cccc(-c2cc(Nc3cnccc3S(C)(=O)=O)cc3nccnc23)c1` [Example 129, 8-(3-Ethoxyphenyl)-N-(4-methanesulfonylpyridin-3-yl)quinoxalin-6-amine], which IC50 is on record?
Answer: 10 to 100 µM

Question: With `CS(=O)(=O)c1ccncc1Nc1cc(-c2ccc(N)c(F)c2)c2nccnc2c1` [Example 186, 8-(4-Amino-3-fluorophenyl)-N-(4-methanesulfonylpyridin-3-yl)quinoxalin-6-amine] as the molecule, how does the IC50 read?
Answer: 0.001 to 1 µM

Question: Which IC50 does the source give for `CNc1ccc(S(C)(=O)=O)c(Nc2cc(-c3ccc4ccn(C)c4c3)c3nccnc3c2)c1` [Example 57, 4-Methanesulfonyl-N1-methyl-N3-[8-(1-methyl-1H-indol-6-yl)quinoxalin-6-yl]benzene-1,3-diamine] here?
Answer: 0.001 to 1 µM

Question: Which IC50 does the source give for `Cn1ccc2ccc(-c3cc(Nc4cnccc4Cl)cc4nccnc34)cc21` [Example 69, N-(4-Chloropyridin-3-yl)-8-(1-methyl-1H-indol-6-yl)quinoxalin-6-amine] here?
Answer: 0.001 to 1 µM

Question: Which IC50 does the source give for `Cn1ccc2cc(F)c(-c3cc(Nc4cnccc4S(C)(=O)=O)cc4nccnc34)cc21` [Example 73, 8-(5-Fluoro-1-methyl-1H-indol-6-yl)-N-(4-methanesulfonylpyridin-3-yl)quinoxalin-6-amine] here?
Answer: 0.001 to 1 µM

Question: `CS(=O)(=O)c1ccncc1Nc1cc(-c2ccc3sncc3c2)c2nccnc2c1` [Example 161, 8-(1,2-Benzothiazol-5-yl)-N-(4-methanesulfonylpyridin-3-yl)quinoxalin-6-amine] was tested. Which IC50 did it give?
Answer: 1 to 10 µM

Question: With `CS(=O)(=O)c1ccncc1Nc1cc(-c2cccc(NC(=O)C3CCCN3)c2)c2nccnc2c1` (stereo not drawn) [Example 165, N-(3-{7-[(4-Methanesulfonylpyridin-3-yl)amino]quinoxalin-5-yl}phenyl)pyrrolidine-2-carboxamide] as the molecule, how does the IC50 read?
Answer: 10 to 100 µM

Question: `Cc1ccc(N)c(-c2cc(Nc3cnccc3S(C)(=O)=O)cc3nccnc23)c1` [Example 66, 8-(2-Amino-5-methylphenyl)-N-(4-methanesulfonylpyridin-3-yl)quinoxalin-6-amine] was tested. Which IC50 did it give?
Answer: 1 to 10 µM

Question: For `Cn1nnc2cc(-c3cc(Nc4cnccc4S(C)(=O)=O)cc4nccnc34)ccc21` [Example 167, N-(4-methanesulfonylpyridin-3-yl)-8-(1-methyl-1H-1,2,3-benzotriazol-5-yl)quinoxalin-6-amine], which IC50 is on record?
Answer: 10 to 100 µM

Question: How did the IC50 turn out when `Cn1ccc2ccc(-c3cc(Nc4cc(-c5nn[nH]n5)ccc4S(C)(=O)=O)cc4nccnc34)cc21` [Example 43, N-[2-Methanesulfonyl-5-(2H-1,2,3,4-tetrazol-5-yl)phenyl]-8-(1-methyl-1H-indol-6-yl)quinoxalin-6-amine] was run?
Answer: 0.001 to 1 µM

Question: Which IC50 does the source give for `Cn1ccc2cc(-c3cc(Nc4cnccc4Cl)cc4nccnc34)ccc21` [Example 30, N-(4-Chloropyridin-3-yl)-8-(1-methyl-1H-indol-5-yl)quinoxalin-6-amine] here?
Answer: 10 to 100 µM

Question: With `Cn1ccc2ccc(-c3cc(N4CCc5ccncc54)cc4nccnc34)cc21` [Example 2, 5-(1-Methyl-1H-indol-6-yl)-7-{1H,2H,3H-pyrrolo[2,3-c]pyridin-1-yl}quinoxaline] as the molecule, how does the IC50 read?
Answer: 0.001 to 1 µM

Question: `Cc1cc2ccn(C)c2cc1-c1cc(Nc2cnccc2S(C)(=O)=O)cc2nccnc12` [Example 195, 8-(1,5-Dimethyl-1H-indol-6-yl)-N-(4-methanesulfonylpyridin-3-yl)quinoxalin-6-amine] was tested. Which IC50 did it give?
Answer: 0.001 to 1 µM

Question: For `CS(=O)(=O)c1ccncc1Nc1cc(-c2ccc(NC(=O)C3CCCN3)cc2)c2nccnc2c1` (stereo not drawn) [Example 164, N-(4-{7-[(4-methanesulfonylpyridin-3-yl)amino]quinoxalin-5-yl}phenyl)pyrrolidine-2-carboxamide], which IC50 is on record?
Answer: 10 to 100 µM

Question: Which IC50 does the source give for `Cn1ccc2ccc(-c3cc(Nc4ccccc4S(=O)(=O)NC4CCCOC4)cc4nccnc34)cc21` (stereo not drawn) [Example 209, 2-{[8-(1-Methyl-1H-indol-6-yl)quinoxalin-6-yl]amino}-N-(oxan-3-yl)benzene-1-sulfonamide] here?
Answer: 0.001 to 1 µM

Question: `Cn1ccc2ccc(-c3cc(Nc4cnccc4S(C)(=O)=O)cc4nccnc34)c(F)c21` [Example 59, 8-(7-Fluoro-1-methyl-1H-indol-6-yl)-N-(4-methanesulfonylpyridin-3-yl)quinoxalin-6-amine] was tested. Which IC50 did it give?
Answer: 0.001 to 1 µM

Question: For `CC(=O)N1CCOCC1CNC(=O)c1ccncc1Nc1cc(-c2ccc3ccn(C)c3c2)c2nccnc2c1` (stereo not drawn) [Example 136, N-[(4-acetylmorpholin-3-yl)methyl]-3-{[8-(1-methyl-1H-indol-6-yl)quinoxalin-6-yl]amino}pyridine-4-carboxamide], which IC50 is on record?
Answer: 0.001 to 1 µM

Question: `CS(=O)(=O)c1ccccc1Nc1cc(-c2ccc3sc(N)nc3c2)c2nccnc2c1` [Example 190, 8-(2-Amino-1,3-benzothiazol-5-yl)-N-(2-methanesulfonylphenyl)quinoxalin-6-amine] was tested. Which IC50 did it give?
Answer: 0.001 to 1 µM
